Source: JP2011135835A, “ダンマラン系トリテルペン類含有組成物及び呈味改善方法” (Lion Corp, priority 2009, dated 2011)

Assay: physchem
Type: physicochemical
Settings: for residual rate: after standing 3 weeks at 40°C, 75% relative humidity, HPLC

Row | SMILES | remaining at 504 h | residual rate
1 | CC1(C)CCC[C@](C)([C@H]2CC[C@]3(C)[C@@H]2[C@H](O)C[C@@H]2[C@@]4(C)CC[C@H](O)C(C)(C)[C@@H]4CC[C@]23C)O1 [PD, パナキサジオール] | 99.7% | 
2 | CC1(C)CCC[C@](C)([C@H]2CC[C@]3(C)[C@@H]2[C@H](O)C[C@@H]2[C@@]4(C)CC[C@H](O)C(C)(C)[C@@H]4[C@@H](O)C[C@]23C)O1 [PT, パナキサトリオール] | 99.8% | 
3 | CC(C)=CCC[C@](C)(O)[C@H]1CC[C@]2(C)[C@@H]1[C@H](O)C[C@@H]1[C@@]3(C)CC[C@H](O)C(C)(C)[C@@H]3CC[C@]12C [PPD, プロトパナキサジオール] |  | 検出されなかった
4 | CC(C)=CCC[C@](C)(O)[C@H]1CC[C@]2(C)[C@@H]1[C@H](O)C[C@@H]1[C@@]3(C)CC[C@H](O)C(C)(C)[C@@H]3[C@@H](O)C[C@]12C [PPT, プロトパナキサトリオール] |  | 検出されなかった
